Numbered stars: 1 amine (or outer) side, 2 acyl side, 3 side chain; on linkers, the order of the positions; unused ones are H or OH. Bridge positions count the residues as written; N and C are the ends. Square brackets hold non-standard residues; d marks the D form. Peptide text beside a SMILES is read from it. X1 = CC(C)CCCCCCCCC[C@H](CC(=O)[*:1])O[*:2]
What was measured:
[1] = tested on: Rhodococcus rhodochrous ATCC #53968; assay: Growth of bacteria on crude oil with inhibitors, optical density at 600 nm; type: cell-based
Experimental: (§1) An oil degrading microorganism was used to evaluate the use of chemical inhibitors to slow the utilization of hydrocarbons in petroleum. In a non-limiting example, three different chemical compounds that have been reported to inhibit beta-oxidation were tested in oil and culture medium on a petroleum sample with a strain of Rhodococcus rhodochrous ATCC #53968 in m9 minimal medium. To test the ability of each chemical inhibitor to slow the consumption of fatty acids a culture of bacteria was grown on a crude oil sample for a period of three days with crude petroleum oil as the only carbon source. Four separate flasks were set up, each with an oil to aqueous media ratio of 1 to 5 (10 ml of crude oil to 50 ml of culture medium). Each of the three chemical inhibitors was added to a separate flask and a fourth flask was allowed to digest without the addition of a chemical inhibitor as a control. The flasks were shaken at a room temperature of about 25° C. under aerobic conditions. The progress of the microbial digestion was monitored by the optical density at 600 nm and by visual inspection of the brown oil color in the aqueous phase. Three days after the addition of inhibitors, or a total of six days of incubation with oil, a small sample of oil (0.31 g) was removed. A second sample of the same size was remover after another 6 days. The organic acids were extracted from each oil sample with 1% NaOH in 70% ethanol. The samples were shaken vigorously for one minute. The aqueous extract material was then extracted with hexane to remove any trace of oil. The samples of extracted organic acids were then dried under vacuum and converted to methyl esters with BF3 in methanol.
Digestion with the bacteria increases the total amount of carboxylic acids in all the samples. The digestions with the chemical beta-oxidation inhibitors produce about the same or a little more total methyl ester peaks than the bacterial digestion without an inhibitor. […] The later eluting peaks increase at a faster rate with the inhibitors than without. For example, the 12 day sample with no inhibitor increase from 5.9 to 45.9 area units for peaks up to 13 minutes. The sample with the acrylic acid inhibitor has an increase of from 5.9 to 43.7 area units, which is less than without inhibitor. The later eluting peaks increase from 3.6 to 14.3 without the inhibitor, but with acrylic acid the later peak areas increase to 22.5 area units. […] After 6 days of digestion the optical density had reached 2.23 for the uninhibited digestion as compared to 0.49 for the acrylic acid inhibited sample and 1.84 for the 2-bromooctanoic acid and 2.4 for the 2-bromohexadeconoic acid. After 12 days of digestion the uninhibited sample had reached 4.0 and the acrylic acid had increased to 1.7 and 2.2 and 2.4 for the other two inhibitors. Therefore, by this experimental analysis one can determine which inhibitors increase the carboxylic acid content or the acid number of the oil fastest with the least amount of oil consumption. The oil consumption can be determined by quantitation of remaining oil or by growth of bacteria were oil is the only carbon source. It appears that all the inhibitors helped reduce the utilization of fatty acids and the consumption of oil while producing an increase in acid number.

[2] = tested on: Rhodococcus rhodochrous ATCC #53968; assay: Digestion of Red River crude oil with and without beta-oxidation inhibitors; GC of methyl esters of extracted organic acids; type: cell-based; details: for Total GC (all peaks integrated by the GC integrator): 0.31 g oil sample; for conv. To umoles FA: approximately 1.0 micromoles per 100 area units; for Cal. AN (calculated acid number): estimated from GC areas
Experimental: as §1
The mixtures of methyl esters were analyzed by GC (gas chromatography) using a HP (Hewlett Packard) 5890 GC with an Agilent Technologies capillary column, HP-5 (crosslinked 5% PH) ME Siloxane 0.25 micrometer coating with a length of 30 meter and a column ID (internal diameter) of 0.32 mm. Helium was used as a carrier gas. Detection was by a FID detector and integration of peak areas was done with a HP 3396 integrator. The temperature program held an initial temperature of 40° C. for 1.0 minutes then increased at 15 degrees per minute to 280° C., and finally held at a temperature of 280° C. for 5 minutes. To quantify the amount of organic acids extracted by this procedure, a stock solution of 2-bromooctanoate and 2-bromohexadecanoate were added to a sample of undigested Red River crude petroleum oil and then extracted by the same procedure as the bio-digested oil samples. The average area for theses two organic acids was used to estimate the amount of organic acids in micromoles per area unit determined by the GC integrator. The number was calculated to be approximately 1.0 micromoles per 100 area units. The area units for each of the GC peaks are list in Table 2. This number was used to estimate the micromoles organic acids extracted from the oil. This estimate was used to calculate the number of mg of KOH that equaled the number of micromoles of organic acid estimated. This number is listed on the last row in Table 2 as the calculated AN (acid number) for each digestion experiment. These estimated numbers are only based on organic acids that are hydrophobic enough to stay in the oil phase and not move into the aqueous phase. Organic acids measured include the carboxylic acids made by the bacteria and that have been secreted out of the cell and have migrated back to the oil phase. They are also hydrocarbons that are small enough to be extracted into the ethanol aqueous extraction solvent. This number is likely to be less than the total acid number (TAN), a measure often used to evaluate crude petroleum for amenability to alkaline waterflooding.
The earlier eluting peaks are believed to represent methyl ester of lighter hydrocarbon carboxylic acids and the later eluting peaks are believed to represent methyl ester of the heavier organic acids. […]

[3] = tested on: Rhodococcus rhodochrous ATCC #53968; assay: End of digestion: oil and aqueous volumes, acid number by alcoholic alkaline extraction and back titration; type: cell-based; details: one ml of oil, alcoholic alkaline extraction, back titration; acrylic acid value per gram of oil emulsion
Experimental: as §1, with “The samples were shaken vigorously for one minute. The aqueous extract material was then extracted with hexane to remove any trace of oil. The samples of extracted organic acids were then dried under vacuum and converted to methyl esters with BF3 in methanol.” left out
At the end of the experiment the oil and water were separated and the volume determined. […] This would have under reported the amount of methyl esters determined by GC analysis. The amount of aqueous phase was determined to be 22.5 ml for the acrylic acid sample and 46 ml, 48 ml and 47.5 ml for the others. […] The calculated acid number for the uninhibited digestion was 5 mg of KOH per gram. The other two inhibited digestions were analyzed to be 4.5 mg for the 2-bromooctanoic acid and 6.5 for the 2-bromohexadecanoic acid inhibited digestion. The undigested oil was determined to have an acid number of 6.5 mg of KOH by analysis of a one gram sample and a 10 gram sample. […]

3-ketoacyl-CoA thiolase = details: cited from earlier work
3-ketothiolase I = target: T1, 3-ketothiolase I (Rattus norvegicus, UniProt P13437); details: cited from earlier work
T1 sequence (P13437 1-397): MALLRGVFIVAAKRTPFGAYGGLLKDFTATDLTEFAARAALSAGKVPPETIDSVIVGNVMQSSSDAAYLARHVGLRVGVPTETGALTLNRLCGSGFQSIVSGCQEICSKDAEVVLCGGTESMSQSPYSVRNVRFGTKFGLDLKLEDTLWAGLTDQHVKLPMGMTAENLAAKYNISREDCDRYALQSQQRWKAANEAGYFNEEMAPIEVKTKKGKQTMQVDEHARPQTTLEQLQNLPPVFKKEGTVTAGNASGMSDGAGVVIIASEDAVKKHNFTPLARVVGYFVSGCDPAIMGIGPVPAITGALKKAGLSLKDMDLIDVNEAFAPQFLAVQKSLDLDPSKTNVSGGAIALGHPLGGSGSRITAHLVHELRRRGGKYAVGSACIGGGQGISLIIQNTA

[4] = 100, pH 10
Experimental: Production of rhamnolipid biosurfactant was tested in engineered strains using the oil spreading assay (Fang et al DOE report 2007). Cells were grown three days at 30° C. in YCA-10 medium (per liter: 25 g NaCl, 5 g yeast extract, 5 g casamino Acids, 5 g Na2CO3, 1 g sodium glutamate, 1 g NH4Cl, 1 g KH2PO4, 1 g KCl, 200 mg MgSO4.7H2O, 36 mg FeCl2.4H2O, 0.36 mg MnCl.4H2O, adjusted to pH10.0 with KOH) containing 5 μg/ml chloramphenicol. For oil spreading assays, 50 mls of distilled water was dispensed into a 15 cm petri dish and 50 μl of petroleum oil was added to the surface of the water. A 10 μl drop of medium or culture suspension was added to the surface of the oil, and the diameter of the clear zone (if any) was measured after 2 minutes.

**Q.** What does the source list for `CCCCCCCCCCCCCCC(Br)C(=O)O` (stereo not shown) [Br C16, 2-bromohexadecanoic acid]?
**A.** optical density ([1]; after 6 days of digestion, crude oil only carbon source): 2.4; optical density ([1]; after 12 days of digestion): 2.4; GC peak area, retention time 4.5 ([2]; 6 days): 0.226 area units; GC peak area, retention time 5.6 ([2]; 6 days): 1.099 area units; GC peak area, retention time 6.6 ([2]; 6 days): 3.049 area units; GC peak area, retention time 7.6 ([2]; 6 days): 2.553 area units; GC peak area, retention time 8.2 ([2]; 6 days): 0.705 area units; GC peak area, retention time 8.5 ([2]; 6 days): 1.395 area units; GC peak area, retention time 9.4 ([2]; 6 days): 1.131 area units; GC peak area, retention time 10.2 ([2]; 6 days): 1.11 area units; GC peak area, retention time 11 ([2]; 6 days): 4.105 area units; GC peak area, retention time 11.5 ([2]; 6 days): 2.76 area units; GC peak area, retention time 12.5 ([2]; 6 days): 4.8 area units; GC peak area, retention time 13.2 ([2]; 6 days): 1.26 area units; GC peak area, retention time 13.6 ([2]; 6 days): 1.997 area units; GC peak area, retention time 13.8 ([2]; 6 days): 3.211 area units; SubTotal peak area, later peaks eluting after 13 minutes ([2]; 6 days): 6.468 area units; SubTotal peak area, peaks eluting before 13 minutes ([2]; 6 days): 22.933 area units; Total GC area For 1 ml ([2]; 6 days): 1385; Total of all selected peaks ([2]; 6 days): 29.401 area units; Total GC (all peaks integrated by the GC integrator) ([2]; 6 days): 429.5 area units; conv. To umoles FA ([2]; 6 days): 13.85 µmol; Cal. AN (calculated acid number) ([2]; 6 days): 0.78 mg of KOH; GC peak area, retention time 4.2 ([2]; 12 days): 0.354 area units; GC peak area, retention time 4.5 ([2]; 12 days): 0.237 area units; GC peak area, retention time 5.6 ([2]; 12 days): 0.624 area units; GC peak area, retention time 6.6 ([2]; 12 days): 1.498 area units; GC peak area, retention time 7.6 ([2]; 12 days): 1.246 area units; GC peak area, retention time 8.2 ([2]; 12 days): 0.602 area units; GC peak area, retention time 8.5 ([2]; 12 days): 0.624 area units; GC peak area, retention time 9.4 ([2]; 12 days): 0.476 area units; GC peak area, retention time 10.2 ([2]; 12 days): 0.475 area units; GC peak area, retention time 11 ([2]; 12 days): 1.663 area units; GC peak area, retention time 11.5 ([2]; 12 days): 3.922 area units; GC peak area, retention time 12.3 ([2]; 12 days): 3.095 area units; GC peak area, retention time 13 ([2]; 12 days): 2.495 area units; GC peak area, retention time 13.2 ([2]; 12 days): 3.584 area units; GC peak area, retention time 13.4 ([2]; 12 days): 3.088 area units; GC peak area, retention time 13.6 ([2]; 12 days): 2.779 area units; GC peak area, retention time 13.8 ([2]; 12 days): 4.626 area units; GC peak area, retention time 14.2 ([2]; 12 days): 0.762 area units; SubTotal peak area, later peaks eluting after 13 minutes ([2]; 12 days): 17.334 area units; SubTotal peak area, peaks eluting before 13 minutes ([2]; 12 days): 14.816 area units; Total GC area For 1 ml ([2]; 12 days): 828; Total of all selected peaks ([2]; 12 days): 32.15 area units; Total GC (all peaks integrated by the GC integrator) ([2]; 12 days): 256.8 area units; conv. To umoles FA ([2]; 12 days): 8.28 µmol; Cal. AN (calculated acid number) ([2]; 12 days): 0.46 mg of KOH; final analysis acid number [3]: 6.5 mg KOH per gram

**Q.** Which “effect on 3-ketoacyl-CoA thiolase in P. fluorescens” value (3-ketoacyl-CoA thiolase) does the source give for `O=C(O)c1ccccc1O` [Salicylic acid] here?
**A.** inhibit

**Q.** Which “effect on 3-ketothiolase I” value (3-ketothiolase I) does the source give for `CCCCCCC(Br)C(=O)O` (racemic) [DL-2-bromooctanoate] here?
**A.** complete and irreversible inactivation

**Q.** Which Clear zone diameter [4] does the source give for `CC(C)CCCCCCCCC[C@@H]1CC(=O)N[C@@H](CCC(=O)O)C(=O)N[C@@H](CC(C)C)C(=O)N[C@H](CC(C)C)C(=O)N[C@@H](C(C)C)C(=O)N[C@@H](CC(=O)O)C(=O)N[C@H](CC(C)C)C(=O)N[C@@H](CC(C)C)C(=O)O1` [Surfactin (purified)] (EL[dL]VD[dL]L; linker N-C via X1) here?
**A.** 13 mm

Source: patent US9290688B2, “Alkaline microbial enhanced oil recovery” (GEO FOSSIL FUELS, LLC, priority 2011, dated 2016)
